Experimental data taken from the NIST ThermoML archive (doi:10.1021/acs.jced.9b00752).
“And” between values parts separate entries of the source, which are not always exact repeats. Identical values can stand only once. Numbers after ± are expanded uncertainties.

Assay: mn = molality of the nth substance listed, in mol/kg
Settings: 100 kPa, Liquid, Vibrating tube method

**Q.** What does the source list for `N[C@@H](Cc1ccc(O)cc1)C(=O)O` [3-(p-hydroxyphenyl)-L-alanine] + O?
**A.** mass density (273.65 K, m1 = 0.0005): 999.883 ± 0.1 kg/m3; mass density (273.65 K, m1 = 0.001): 999.917 ± 0.1 kg/m3; mass density (273.65 K, m1 = 0.0011): 999.943 ± 0.1 kg/m3; mass density (273.65 K, m1 = 0.0022): 1000.01 ± 0.1 kg/m3; mass density (273.65 K, m1 = 0.0026): 1000.03 ± 0.1 kg/m3; mass density (273.65 K, m1 = 0.0035): 1000.1 ± 0.1 kg/m3; mass density (273.65 K, m1 = 0.0036): 1000.1 ± 0.1 kg/m3; mass density (273.65 K, m1 = 0.0038): 1000.11 ± 0.1 kg/m3; mass density (273.65 K, m1 = 0.0045): 1000.16 ± 0.1 kg/m3 and 1000.17 ± 0.1 kg/m3; mass density (273.65 K, m1 = 0.0047): 1000.16 ± 0.1 kg/m3; mass density (273.65 K, m1 = 0.0053): 1000.21 ± 0.1 kg/m3 and 1000.22 ± 0.1 kg/m3; mass density (273.65 K, m1 = 0.0055): 1000.21 ± 0.1 kg/m3; mass density (274.15 K, m1 = 0.0005): 999.909 ± 0.1 kg/m3; mass density (274.15 K, m1 = 0.001): 999.942 ± 0.1 kg/m3; mass density (274.15 K, m1 = 0.0011): 999.97 ± 0.1 kg/m3; mass density (274.15 K, m1 = 0.0022): 1000.04 ± 0.1 kg/m3; mass density (274.15 K, m1 = 0.0026): 1000.06 ± 0.1 kg/m3; mass density (274.15 K, m1 = 0.0035): 1000.13 ± 0.1 kg/m3; mass density (274.15 K, m1 = 0.0036): 1000.13 ± 0.1 kg/m3; mass density (274.15 K, m1 = 0.0038): 1000.13 ± 0.1 kg/m3; mass density (274.15 K, m1 = 0.0045): 1000.18 ± 0.1 kg/m3 and 1000.2 ± 0.1 kg/m3; mass density (274.15 K, m1 = 0.0047): 1000.19 ± 0.1 kg/m3; mass density (274.15 K, m1 = 0.0053): 1000.23 ± 0.1 kg/m3 and 1000.25 ± 0.1 kg/m3; mass density (274.15 K, m1 = 0.0055): 1000.23 ± 0.1 kg/m3; mass density (274.65 K, m1 = 0.0005): 999.932 ± 0.1 kg/m3; mass density (274.65 K, m1 = 0.001): 999.965 ± 0.1 kg/m3; mass density (274.65 K, m1 = 0.0011): 999.993 ± 0.1 kg/m3; mass density (274.65 K, m1 = 0.0022): 1000.06 ± 0.1 kg/m3; mass density (274.65 K, m1 = 0.0026): 1000.08 ± 0.1 kg/m3; mass density (274.65 K, m1 = 0.0035): 1000.15 ± 0.1 kg/m3; mass density (274.65 K, m1 = 0.0036): 1000.15 ± 0.1 kg/m3; mass density (274.65 K, m1 = 0.0038): 1000.15 ± 0.1 kg/m3; mass density (274.65 K, m1 = 0.0045): 1000.21 ± 0.1 kg/m3 and 1000.22 ± 0.1 kg/m3; mass density (274.65 K, m1 = 0.0047): 1000.21 ± 0.1 kg/m3; mass density (274.65 K, m1 = 0.0053): 1000.26 ± 0.1 kg/m3 and 1000.27 ± 0.1 kg/m3; mass density (274.65 K, m1 = 0.0055): 1000.25 ± 0.1 kg/m3; mass density (275.15 K, m1 = 0.0005): 999.95 ± 0.1 kg/m3; mass density (275.15 K, m1 = 0.001): 999.984 ± 0.1 kg/m3; mass density (275.15 K, m1 = 0.0011): 1000.01 ± 0.1 kg/m3; mass density (275.15 K, m1 = 0.0022): 1000.08 ± 0.1 kg/m3; mass density (275.15 K, m1 = 0.0026): 1000.1 ± 0.1 kg/m3; mass density (275.15 K, m1 = 0.0035): 1000.17 ± 0.1 kg/m3; mass density (275.15 K, m1 = 0.0036): 1000.17 ± 0.1 kg/m3; mass density (275.15 K, m1 = 0.0038): 1000.17 ± 0.1 kg/m3; mass density (275.15 K, m1 = 0.0045): 1000.23 ± 0.1 kg/m3 and 1000.24 ± 0.1 kg/m3; mass density (275.15 K, m1 = 0.0047): 1000.23 ± 0.1 kg/m3; mass density (275.15 K, m1 = 0.0053): 1000.27 ± 0.1 kg/m3 and 1000.28 ± 0.1 kg/m3; mass density (275.15 K, m1 = 0.0055): 1000.27 ± 0.1 kg/m3; mass density (275.65 K, m1 = 0.0005): 999.963 ± 0.1 kg/m3; mass density (275.65 K, m1 = 0.001): 999.997 ± 0.1 kg/m3; mass density (275.65 K, m1 = 0.0011): 1000.02 ± 0.1 kg/m3; mass density (275.65 K, m1 = 0.0022): 1000.09 ± 0.1 kg/m3; mass density (275.65 K, m1 = 0.0026): 1000.11 ± 0.1 kg/m3; mass density (275.65 K, m1 = 0.0035): 1000.18 ± 0.1 kg/m3; mass density (275.65 K, m1 = 0.0036): 1000.18 ± 0.1 kg/m3; mass density (275.65 K, m1 = 0.0038): 1000.18 ± 0.1 kg/m3; mass density (275.65 K, m1 = 0.0045): 1000.24 ± 0.1 kg/m3 and 1000.25 ± 0.1 kg/m3; mass density (275.65 K, m1 = 0.0047): 1000.24 ± 0.1 kg/m3; mass density (275.65 K, m1 = 0.0053): 1000.29 ± 0.1 kg/m3 and 1000.3 ± 0.1 kg/m3; mass density (275.65 K, m1 = 0.0055): 1000.29 ± 0.1 kg/m3; mass density (276.15 K, m1 = 0.0005): 999.972 ± 0.1 kg/m3; mass density (276.15 K, m1 = 0.001): 1000 ± 0.1 kg/m3; mass density (276.15 K, m1 = 0.0011): 1000.03 ± 0.1 kg/m3; mass density (276.15 K, m1 = 0.0022): 1000.1 ± 0.1 kg/m3; mass density (276.15 K, m1 = 0.0026): 1000.12 ± 0.1 kg/m3; mass density (276.15 K, m1 = 0.0035): 1000.19 ± 0.1 kg/m3; mass density (276.15 K, m1 = 0.0036): 1000.19 ± 0.1 kg/m3; mass density (276.15 K, m1 = 0.0038): 1000.19 ± 0.1 kg/m3; mass density (276.15 K, m1 = 0.0045): 1000.25 ± 0.1 kg/m3; mass density (276.15 K, m1 = 0.0047): 1000.25 ± 0.1 kg/m3; mass density (276.15 K, m1 = 0.0053): 1000.29 ± 0.1 kg/m3 and 1000.31 ± 0.1 kg/m3; mass density (276.15 K, m1 = 0.0055): 1000.29 ± 0.1 kg/m3; mass density (276.65 K, m1 = 0.0005): 999.98 ± 0.1 kg/m3; mass density (276.65 K, m1 = 0.001): 1000.01 ± 0.1 kg/m3; mass density (276.65 K, m1 = 0.0011): 1000.04 ± 0.1 kg/m3; mass density (276.65 K, m1 = 0.0022): 1000.11 ± 0.1 kg/m3; mass density (276.65 K, m1 = 0.0026): 1000.13 ± 0.1 kg/m3; mass density (276.65 K, m1 = 0.0035): 1000.19 ± 0.1 kg/m3; mass density (276.65 K, m1 = 0.0036): 1000.2 ± 0.1 kg/m3; mass density (276.65 K, m1 = 0.0038): 1000.2 ± 0.1 kg/m3; mass density (276.65 K, m1 = 0.0045): 1000.25 ± 0.1 kg/m3 and 1000.26 ± 0.1 kg/m3; mass density (276.65 K, m1 = 0.0047): 1000.26 ± 0.1 kg/m3; mass density (276.65 K, m1 = 0.0053): 1000.3 ± 0.1 kg/m3 and 1000.31 ± 0.1 kg/m3; mass density (276.65 K, m1 = 0.0055): 1000.3 ± 0.1 kg/m3; mass density (277.15 K, m1 = 0.0005): 999.979 ± 0.1 kg/m3; mass density (277.15 K, m1 = 0.001): 1000.01 ± 0.1 kg/m3; mass density (277.15 K, m1 = 0.0011): 1000.04 ± 0.1 kg/m3; mass density (277.15 K, m1 = 0.0022): 1000.11 ± 0.1 kg/m3; mass density (277.15 K, m1 = 0.0026): 1000.13 ± 0.1 kg/m3; mass density (277.15 K, m1 = 0.0035): 1000.2 ± 0.1 kg/m3; mass density (277.15 K, m1 = 0.0036): 1000.2 ± 0.1 kg/m3; mass density (277.15 K, m1 = 0.0038): 1000.2 ± 0.1 kg/m3; mass density (277.15 K, m1 = 0.0045): 1000.25 ± 0.1 kg/m3 and 1000.26 ± 0.1 kg/m3; mass density (277.15 K, m1 = 0.0047): 1000.26 ± 0.1 kg/m3; mass density (277.15 K, m1 = 0.0053): 1000.3 ± 0.1 kg/m3 and 1000.31 ± 0.1 kg/m3; mass density (277.15 K, m1 = 0.0055): 1000.3 ± 0.1 kg/m3; mass density (277.65 K, m1 = 0.0005): 999.978 ± 0.1 kg/m3; mass density (277.65 K, m1 = 0.001): 1000.01 ± 0.1 kg/m3; mass density (277.65 K, m1 = 0.0011): 1000.04 ± 0.1 kg/m3; mass density (277.65 K, m1 = 0.0022): 1000.11 ± 0.1 kg/m3; mass density (277.65 K, m1 = 0.0026): 1000.13 ± 0.1 kg/m3; mass density (277.65 K, m1 = 0.0035): 1000.19 ± 0.1 kg/m3; mass density (277.65 K, m1 = 0.0036): 1000.19 ± 0.1 kg/m3; mass density (277.65 K, m1 = 0.0038): 1000.2 ± 0.1 kg/m3; mass density (277.65 K, m1 = 0.0045): 1000.25 ± 0.1 kg/m3 and 1000.26 ± 0.1 kg/m3; mass density (277.65 K, m1 = 0.0047): 1000.25 ± 0.1 kg/m3; mass density (277.65 K, m1 = 0.0053): 1000.3 ± 0.1 kg/m3 and 1000.31 ± 0.1 kg/m3; mass density (277.65 K, m1 = 0.0055): 1000.3 ± 0.1 kg/m3; mass density (278.15 K, m1 = 0.0005): 999.972 ± 0.1 kg/m3; mass density (278.15 K, m1 = 0.001): 1000 ± 0.1 kg/m3; mass density (278.15 K, m1 = 0.0011): 1000.03 ± 0.1 kg/m3; mass density (278.15 K, m1 = 0.0022): 1000.1 ± 0.1 kg/m3; mass density (278.15 K, m1 = 0.0026): 1000.12 ± 0.1 kg/m3; mass density (278.15 K, m1 = 0.0035): 1000.19 ± 0.1 kg/m3; mass density (278.15 K, m1 = 0.0036): 1000.19 ± 0.1 kg/m3; mass density (278.15 K, m1 = 0.0038): 1000.19 ± 0.1 kg/m3; mass density (278.15 K, m1 = 0.0045): 1000.24 ± 0.1 kg/m3 and 1000.25 ± 0.1 kg/m3; mass density (278.15 K, m1 = 0.0047): 1000.25 ± 0.1 kg/m3; mass density (278.15 K, m1 = 0.0053): 1000.29 ± 0.1 kg/m3 and 1000.3 ± 0.1 kg/m3; mass density (278.15 K, m1 = 0.0055): 1000.29 ± 0.1 kg/m3
